Data: patent US11554171B2, “Compounds and methods for the targeted degradation of bromodomain-containing proteins” (Arvinas Operations, Inc., priority 2015, dated 2023)

Test system: c-myc in 22RV-1 cells
Test: Human c-myc ELISA assay
Assay type: cell-based
Details: Homo sapiens; for Emax: 22Rv1, 18 h, read-out: Degradation of BRD4: Maximum inhibition (%) c-Myc ELISA in 22RV1 cells; for DC50: 22Rv1, read-out: Degradation of BRD4: DC50 (uM) c-Myc ELISA in 22RV1 cells
Procedure: 22RV-1 cells are seeded at 30,000 cells/well at a volume of 75 μL/well in RPMI+10% FBS media in 96-well plates and grown overnight at 37 C. Cells are dosed with compounds at 4× concentration diluted in 0.4% DMSO; compounds are serially diluted 1:3 for 8-point dose curve. 25 ul of compounds is added to cells for a final concentration starting at 300 nM-0.3 nM or 1 uM-1 nM in 0.1% DMSO and incubated for 18 hrs. Media is aspirated, cells washed 1× with PBS and aspirated. Cells are lysed in 50 ul RIPA buffer (50 mM Tris pH8, 150 mM NaCl, 1% Tx-100, 0.1% SDS, 0.5% sodium deoxycholate) supplemented with protease and phosphatase inhibitors. Plates are incubated on ice for 15 minutes then centrifuged at 4 C for 10 min at 4000 rpm. Add 50 ul of cleared lysate from 96-well assay plate into 96-well c-myc ELISA plate (Novex, Life Technologies Catalog #KH02041). Reconstitute c-myc standard with standard diluent buffer; standard curve range is 333 pg/ml-0 pg/ml, diluted 1:2 for 8-point dose curve. The rest of the assay was performed following the protocol from the c-myc ELISA kit. Data is analyzed and plotted using GraphPad Prism software. Compounds described in this application were assayed and c-myc suppression potency is listed in the following Table (A: DC50<10 nM; B: DC50 10-100 nM; C: DC50: 100-1000 nM; D: DC50>1000 nM)

DC50 [µM]	Structure (SMILES)	Emax [%]
> 1	Cc1ncsc1-c1ccc(CNC(=O)[C@@H]2C[C@@H](O)CN2C(=O)[C@H](c2cc(OCCN3CC[C@@H](NC(=O)C[C@@H]4N=C(c5ccc(Cl)cc5)c5c(sc(C)c5C)-n5c(C)nnc54)C3)no2)C(C)C)cc1 (single isomer, unassigned) [Example 311]	43.6
< 0.01	Cc1ncsc1-c1ccc(CNC(=O)[C@@H]2C[C@@H](O)CN2C(=O)[C@@H](c2cc(OCCN3CC[C@@H](NC(=O)C[C@@H]4N=C(c5ccc(Cl)cc5)c5c(sc(C)c5C)-n5c(C)nnc54)C3)no2)C(C)C)cc1 (single isomer, unassigned) [Example 312]	87.5
0.01 to 0.1	Cc1ncsc1-c1ccc(CNC(=O)[C@@H]2C[C@@H](O)CN2C(=O)[C@@H](NC(=O)COCCCOCCCCOCCCOc2ccc(NC(=O)C[C@@H]3N=C(c4ccc(Cl)cc4)c4c(sc(C)c4C)-n4c(C)nnc43)cc2)C(C)(C)C)cc1 [Example 13]	100
0.01 to 0.1	Cc1ncsc1-c1ccc(CNC(=O)[C@@H]2C[C@@H](O)CN2C(=O)[C@@H](NC(=O)COCCOCCOCCCCOc2ccc(NC(=O)C[C@@H]3N=C(c4ccc(Cl)cc4)c4c(sc(C)c4C)-n4c(C)nnc43)cc2)C(C)(C)C)cc1 [Example 14]	100
0.01 to 0.1	Cc1ncsc1-c1ccc(CNC(=O)[C@@H]2C[C@@H](O)CN2C(=O)[C@@H](NC(=O)COCCCCOCCCOc2ccc(NC(=O)C[C@@H]3N=C(c4ccc(Cl)cc4)c4c(sc(C)c4C)-n4c(C)nnc43)cc2)C(C)(C)C)cc1 [Example 15]	100
0.01 to 0.1	Cc1ncsc1-c1ccc(CNC(=O)[C@@H]2C[C@@H](O)CN2C(=O)[C@@H](NC(=O)COCCCOCCCOc2ccc(NC(=O)C[C@@H]3N=C(c4ccc(Cl)cc4)c4c(sc(C)c4C)-n4c(C)nnc43)cc2)C(C)(C)C)cc1 [Example 16]	98.6

Further lines, the compound ahead of its results:

Structure (SMILES)	DC50 [µM]	Emax [%]
Cc1ncsc1-c1ccc(CNC(=O)[C@@H]2C[C@@H](O)CN2C(=O)[C@H](C(C)C)N2Cc3ccccc3C2=O)c(OCCOCCOCCOCCNC(=O)C[C@@H]2N=C(c3ccc(Cl)cc3)c3c(sc(C)c3C)-n3c(C)nnc32)c1 [Example 1, (2S,4R)-N-{[2-(2-{2-[2-(2-{2-[(9S)-7-(4-chlorophenyl)-4,5,13-trimethyl-3-thia-1,8,11,12-tetraazatricyclo[8.3.0.0^2,^6]trideca-2(6),4,7,10,12-pentaen-9-yl]acetamido}ethoxy)ethoxy]ethoxy}ethoxy)-4-(4-methyl-1,3-thiazol-5-yl)phenyl]methyl}-4-hydroxy-1-[(2S)-3-methyl-2-(1-oxo-2,3-dihydro-1H-isoindol-2-yl)butanoyl]pyrrolidine-2-carboxamide]	0.1 to 1	100
Cc1ncsc1-c1ccc(CNC(=O)[C@@H]2C[C@@H](O)CN2C(=O)[C@H](C(C)C)N2Cc3ccccc3C2=O)c(OCCOCCOCCOCCOCCNC(=O)C[C@@H]2N=C(c3ccc(Cl)cc3)c3c(sc(C)c3C)-n3c(C)nnc32)c1 [Example 2]	> 1	41
Cc1ncsc1-c1ccc(CNC(=O)[C@@H]2C[C@@H](O)CN2C(=O)[C@H](C(C)C)N2Cc3ccccc3C2=O)c(OCCOCCOCCOCCOCCOCCNC(=O)C[C@@H]2N=C(c3ccc(Cl)cc3)c3c(sc(C)c3C)-n3c(C)nnc32)c1 [Example 3]	0.1 to 1	100
Cc1ncsc1-c1ccc(CNC(=O)[C@@H]2C[C@@H](O)CN2C(=O)[C@@H](NC(=O)COCCOCCOCCOCCOCCOCCNC(=O)C[C@@H]2N=C(c3ccc(Cl)cc3)c3c(sc(C)c3C)-n3c(C)nnc32)C(C)(C)C)cc1 [Example 4, (2S,4R)-1-[(2S)-2-(20-{2-[(9S)-7-(4-chlorophenyl)-4,5,13-trimethyl-3-thia-1,8,11,12-tetraazatricyclo[8.3.0.0^2,^6]trideca-2(6),4,7,10,12-pentaen-9-yl]acetamido}-3,6,9,12,15,18-hexaoxaicosanamido)-3,3-dimethylbutanoyl]-4-hydroxy-N-{[4-(4-methyl-1,3-thiazol-5-yl)phenyl]methyl}-pyrrolidine-2-carboxamide]	0.1 to 1	62.2
Cc1ncsc1-c1ccc(CNC(=O)[C@@H]2C[C@@H](O)CN2C(=O)[C@H](C(C)C)N2Cc3ccccc3C2=O)c(OCCOCCOCCCOCCOCCNC(=O)C[C@@H]2N=C(c3ccc(Cl)cc3)c3c(sc(C)c3C)-n3c(C)nnc32)c1 [Example 5]	> 1	25
Cc1ncsc1-c1ccc(CNC(=O)[C@@H]2C[C@@H](O)CN2C(=O)[C@H](C(C)C)N2Cc3ccccc3C2=O)c(OCCOCCOCCCCOCCOCCNC(=O)C[C@@H]2N=C(c3ccc(Cl)cc3)c3c(sc(C)c3C)-n3c(C)nnc32)c1 [Example 6]	0.1 to 1	100
Cc1ncsc1-c1ccc(CNC(=O)[C@@H]2C[C@@H](O)CN2C(=O)[C@@H](NC(=O)COCCOCCOCCOCCOCCNC(=O)C[C@@H]2N=C(c3ccc(Cl)cc3)c3c(sc(C)c3C)-n3c(C)nnc32)C(C)(C)C)cc1 [Example 7]	0.1 to 1	93
Cc1ncsc1-c1ccc(CNC(=O)[C@@H]2C[C@@H](O)CN2C(=O)[C@@H](NC(=O)COCCOCCOCCCOCCOCCNC(=O)C[C@@H]2N=C(c3ccc(Cl)cc3)c3c(sc(C)c3C)-n3c(C)nnc32)C(C)(C)C)cc1 [Example 8]	0.1 to 1	95.9
Cc1ncsc1-c1ccc(CNC(=O)[C@@H]2C[C@@H](O)CN2C(=O)[C@@H](NC(=O)COCCOCCOCCCCOCCOCCNC(=O)C[C@@H]2N=C(c3ccc(Cl)cc3)c3c(sc(C)c3C)-n3c(C)nnc32)C(C)(C)C)cc1 [Example 9]	0.1 to 1	96.4
Cc1ncsc1-c1ccc(CNC(=O)[C@@H]2C[C@@H](O)CN2C(=O)[C@@H](NC(=O)COCCOCCOc2ccc(NC(=O)C[C@@H]3N=C(c4ccc(Cl)cc4)c4c(sc(C)c4C)-n4c(C)nnc43)cc2)C(C)(C)C)cc1 [Example 10, (2S,4R)-1-[(2S)-2-(2-{2-[2-(4-{2-[(9S)-7-(4-chlorophenyl)-4,5,13-trimethyl-3-thia-1,8,11,12-tetraazatricyclo[8.3.0.0^2,^6]trideca-2(6),4,7,10,12-pentaen-9-yl]acetamido}phenoxy)ethoxy]ethoxy}acetamido)-3,3-dimethylbutanoyl]-4-hydroxy-N-{[4-(4-methyl-1,3-thiazol-5-yl)phenyl]methyl}pyrrolidine-2-carboxamide]	0.01 to 0.1	100
Cc1ncsc1-c1ccc(CNC(=O)[C@@H]2C[C@@H](O)CN2C(=O)[C@@H](NC(=O)COCCOCCOCCOc2ccc(NC(=O)C[C@@H]3N=C(c4ccc(Cl)cc4)c4c(sc(C)c4C)-n4c(C)nnc43)cc2)C(C)(C)C)cc1 [Example 11]	0.01 to 0.1	99.5
Cc1ncsc1-c1ccc(CNC(=O)[C@@H]2C[C@@H](O)CN2C(=O)[C@@H](NC(=O)COCCOCCOCCOCCOc2ccc(NC(=O)C[C@@H]3N=C(c4ccc(Cl)cc4)c4c(sc(C)c4C)-n4c(C)nnc43)cc2)C(C)(C)C)cc1 [Example 12]	0.01 to 0.1	100
